This is an account of results in EP1984353B1, “AURORA KINASE MODULATORS AND METHOD OF USE” (Amgen, Inc, priority 2006, dated 2007).

The target in one assay is T1, AuroraA-TPX2 (Homo sapiens, UniProt O14965).
T1 construct: 20 µL of AuroraA-TPX2 KD GST; GST
T1 sequence (O14965 133-383 limits assumed): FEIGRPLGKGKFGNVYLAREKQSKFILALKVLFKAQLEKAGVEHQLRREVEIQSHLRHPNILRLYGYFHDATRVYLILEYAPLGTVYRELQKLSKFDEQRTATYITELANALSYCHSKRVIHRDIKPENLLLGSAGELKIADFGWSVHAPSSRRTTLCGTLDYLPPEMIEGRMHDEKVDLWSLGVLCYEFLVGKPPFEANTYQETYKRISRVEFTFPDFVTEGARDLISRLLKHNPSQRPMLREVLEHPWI
T1 sequence (Q9ULW0 1-43 partner limits assumed): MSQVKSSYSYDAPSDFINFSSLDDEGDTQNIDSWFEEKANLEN
As to the kind of experiment: AuroraA-TPX2 Homogeneous Time Resolved Fluorescent (HTRF) kinase assay. It is filed as biochemical. The settings on record: average; given as class symbols; read-out: AurA/TP X2_ IC50_IP (Avg). Put shortly:
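HTRF read-out: europium anti-phosphoPLK antibody (0.02 nM) plus streptavidin-APC detect phosphorylated biotin-PLK after EDTA stop and overnight equilibration. Kinase step runs about 120 min with Aurora-A/TPX2, ATP and roughly 1 µM PLK peptide at pH 7.5 HEPES buffer with Mg2+ and DTT.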
(TR-FRET usually uses a lanthanide donor and a delayed reading to cut background.)

The test system of assay [1] is phosphorylation of Histone H3. Nature of the assay: HeLa cell 1-hour phospho-histone assay. It is filed as cell-based. The following applies: HeLa cells. How it is done: HeLa cell 1-hour phospho-histone assay
The purpose of this assay is to test the inhibitory effect of Aurora compounds with respect to phosphorylation of Histone H3 in the cellular context. HeLa cells (9x10^4/well) are plated in black 96-well flat-bottom tissue culture plates and incubated for 40 hours prior to compound addition. Compounds are serially diluted in DMSO, followed by dilution into MEM containing […] HEPES; 10ul/well of diluted compounds are added to cells (0.5% DMSO final). Cells are incubated for 1 hour at 37 °C in 5% CO2. Cells are then fixed with 3.7% formaldehyde for 10 minutes, washed with wash buffer (1% goat serum and 0.1% Tween 20 in PBS), then permeabilized with 0.5% Triton X in PBS for 15 minutes. After washing with wash buffer, cells are incubated with primary antibody (Upstate #06-507 anti-phospho-histone (Ser 10) antibody (pHH3) for 1 hour at 10ug/ml. After 2 washes with wash buffer, cells are incubated with secondary antibody (Molecular Probes #A11034 goat anti-rabbit Alexa-488 for 1 hour at 1ug/ml + Hoechst 33342 nuclear dye at 1ug/ml (Molecular Probes). Cells are washed 2 times with wash buffer, and buffer replaced with PBS. Plates are scanned on the Cellomics Array Scan (6 fields, ~2000 cells/well) and % of cells that are pHH3 positive were calculated using the Cellomics algorithm.

In another assay the target is T2, AuroraB (Homo sapiens, UniProt Q96GD4).
T2 construct: 20 µL of AuroraB FL His; His
T2 sequence (Q96GD4 whole entry): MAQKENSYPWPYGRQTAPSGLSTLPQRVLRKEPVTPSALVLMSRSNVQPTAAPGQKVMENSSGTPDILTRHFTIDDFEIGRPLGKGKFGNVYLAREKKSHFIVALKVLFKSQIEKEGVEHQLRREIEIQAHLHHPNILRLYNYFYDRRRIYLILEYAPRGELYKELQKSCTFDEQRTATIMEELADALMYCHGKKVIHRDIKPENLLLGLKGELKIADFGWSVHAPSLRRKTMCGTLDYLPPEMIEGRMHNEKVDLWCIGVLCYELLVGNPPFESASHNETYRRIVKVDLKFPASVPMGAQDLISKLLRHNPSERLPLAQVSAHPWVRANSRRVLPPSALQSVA
Nature of the assay: AuroraB Homogeneous Time Resolved Fluorescent (HTRF) kinase assay. It is filed as biochemical. A digest of the protocol:
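HTRF read-out: after EDTA stop and ~60 min with europium anti-phospho-H3 antibody and streptavidin-APC, 655/615 nm ratio reports phosphorylation. Reaction: 400 pM AuroraB FL His, 23 µM ATP (at Km(app)), 0.1 µM biotin-Histone H3 peptide, 50 mM HEPES pH 7.5, MgCl/MnCl, ~90 min.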

Where [2] appears, read: Homo sapiens, HeLa, 1 h, 1 hour, average, given as class symbols, read-out: pHH3 EC50_IP (Avg).
Setting [3] is: average, given as class symbols, read-out: AurB_ _IC50_IP (Avg).
Where [4] appears, read: Homo sapiens, HeLa, 1 h, 1 hour incubation, % of cells pHH3 positive, read-out: inhibitory activity (EC50) in the phospho-histone H3 assay.
Setting [5] is: Homo sapiens, HeLa, 1 h, 1 hour, average, given as numbers, unit inferred, read-out: pHH3 EC50_IP (Avg).

Like-named read-outs stand apart in the source and are kept apart here.

Take `Cc1csc(-c2nnc(Nc3ccc(Oc4ncccc4-c4ccnc(N)n4)cc3)c3ccccc23)n1` [compound 330, N-(4-((3-(2-amino-4-pyrimidinyl)-2-pyridinyi)oxy)phenyl)-4-(4-methyl-1,3-thiazol-2-yl)-1-phthalazinamine]: the IC50 on AuroraA-TPX2 and on AuroraB (setting [3]) was no more than 100 nM each time. Further, the EC50 in assay [1] (setting [2]) was no more than 100 nM.

For the compound `CN1CCN(CCCNc2cc(-c3cccnc3Oc3ccc(Nc4nnc(-c5ccccc5)c5ccccc45)cc3)ccn2)CC1` [compound 279, N-(3-(4-methyl-1-piperazinyl)propyl)-2-((4-((4-phenyl-1-phthalazinyl)amino)phenyl)oxy)-3,4'-bipyridin-2'-amine], the IC50 at AuroraA-TPX2 is 100 to 500 nM; at AuroraB (setting [3]), no more than 100 nM. In addition, the EC50 in assay [1] (setting [2]) is 100 to 500 nM.

For `CNc1nccc(-c2cccnc2Oc2ccc(Nc3nnc(-c4ccsc4)c4ccccc34)cn2)n1` [Example 92, N-(6-((3-(2-(methylamino)-4-pyrimidinyl)-2-pyridinyl)oxy)-3-pyridinyl)-4-(3-thienyl)-1-phthalazinamine], in assay [1] (setting [4]), the EC50 is less than 1000 nM.

On to `c1ccc(-c2nnc(Nc3ccc(Oc4ncccc4-c4ccnc(NCC5CCNCC5)n4)cc3)c3ccccc23)cc1` [compound 335, 4-phenyl-N-(4-((3-(2-((4-piperidinylmethyl)amino)-4-pyrimidinyl)-2-pyridinyl)oxy)phenyl)-1-phthalazinamine], for which the IC50 at AuroraA-TPX2 lay in the range of 500 to 2500 nM; on AuroraB (setting [3]), 100 to 500 nM. The EC50 in assay [1] (setting [2]) is 500 to 2500 nM.

On to `Nc1[nH]ncc1-c1cccnc1Oc1ccc(Nc2nnc(-c3ccccc3)c3ccccc23)cc1` [Example 238, N-(4-((3-(5-amino-1H-pyrazol-4-yl)-2-pyridinyl)oxy)phenyl)-4-phenyl-1-phthalazinamine], for which the EC50 in assay [1] (setting [4]) was less than 1000 nM. In addition, the IC50 on AuroraB (read-out: inhibitory activity (IC50) in the Aurora kinase B HTRF assay) was less than 500 nM.

Take `O=C(O)CCCNc1nccc(-c2cccnc2Oc2ccc(Nc3nnc(-c4ccccc4)c4ccccc34)cc2)n1` [compound 427, 4-((4-(2-((4-((4-phenyl-1-phthalazinyl)amino)phenyl)oxy)-3-pyridinyl)-2-pyrimidinyl)amino)butanoic acid]: the EC50 in assay [1] (setting [2]) was in the range of 500 to 2500 nM.

In the case of `O=c1cc(-c2cccnc2Oc2ccc(Nc3nnc(-c4ccccc4)c4ccccc34)cc2)cc[nH]1` [compound 432, 2-((4-((4-phenyl-1-phthalazinyl)amino)phenyl)oxy)-3,4'-bipyridin-2'(1'H)-one], the EC50 in assay [1] (setting [2]) was in the range of 500 to 2500 nM.

In the case of `Nc1cc(-c2cccnc2Oc2ccc(Nc3nnc(-c4ccccc4)c4ccccc34)cn2)ccn1` [compound 431, 2-((5-((4-phenyl-l-phthalazinyl)amino)-2-pyridinyl)oxy)-3,4'-bipyridin-2'-amine], in assay [1] (setting [2]), the EC50 was no more than 100 nM.

In the case of `Cc1csc(-c2cc(C)c(Nc3ccc(Oc4ncccc4-c4ccnc(N)c4)cc3)nn2)c1` [compound 419, 2-((4-((4-methyl-6-(4-methyl-2-thienyl)-3-pyridazinyl)amino)phenyl)oxy)-3,4'-bipyridin-2'-amine], the EC50 in assay [1] (setting [2]) is 100 to 500 nM.

In the case of `Cc1csc(-c2cc(C)c(Nc3ccc(Oc4ncccc4-c4ccncc4)cc3)nn2)c1` [compound 428, N-(4-(3,4'-bipyridin-2-yloxy)phenyl)-4-methyl-6-(4-methyl-2-thienyl)-3-pyridazinamine], the EC50 in assay [1] (setting [2]) fell in the range of 500 to 2500 nM.

Turning to `CNc1nccc(-c2cccnc2Oc2ccc(Nc3nnc(-c4ccccc4)c4c3CCCC4)cn2)n1` [Example 105, N-(6-((3-(2-(methylamino)-4-pyrimidinyl)-2-pyridinyl)oxy)-3-pyridinyl)-4-phenyl-5,6,7,8-tetrahydro-1-phthalazinamine], in assay [1] (setting [4]), the EC50 was less than 1000 nM.

Regarding `CCc1cc(-c2ccccc2)nnc1Nc1ccc(Oc2ncccc2-c2ccnc(N)c2)cc1` [compound 420, 2-((4-((4-ethyl-6-phenyl-3-pyridazinyl)amino)phenyl)oxy)-3,4'-bipyridin-2'-amine], in assay [1] (setting [5]), the EC50 amounted to 314 nM.

`CNc1cc(-c2cccnc2Oc2ccc(Nc3nnc(-c4ccccc4)c4c3CCC4)cn2)ccn1` [Example 120, N-methyl-2-((5-((4-phenyl-6,7-dihydro-5H-cyclopenta[d]pyridazin-1-yl)amino)-2-pyridinyl)oxy)-3,4'-bipyridin-2'-amine]: in assay [1] (setting [4]), the EC50 was less than 1000 nM.

For the compound `Cc1cc(Br)cnc1Nc1ccc(Oc2ncccc2-c2ccncc2)cc1` [compound 264, N-(4-(3,4'-bipyridin-2-yloxy)phenyl)-5-bromo-3-methyl-2-pyridinamine], in assay [1] (setting [2]), the EC50 was in the range of 500 to 2500 nM. For the same compound, the IC50 on AuroraB (setting [3]) is 500 to 2500 nM.

For the compound `Cc1cc(-c2ccccc2)nnc1Nc1ccc(Oc2ncccc2-c2ccnc(N)n2)cc1` [Example 119, N-(4-((3-(2-amino-4-pyrimidinyl)-2-pyridinyl)oxy)phenyl)-4-methyl-6-phenyl-3-pyridazinamine], the EC50 in assay [1] (setting [4]) was less than 1000 nM.

Turning to `Nc1nccc(-c2cccnc2Oc2ccc(Nc3nnc(-c4ccsc4)c4ccccc34)cc2)n1` [Example 90, N-(4-((3-(2-amino-4-pyrimidinyl)-2-pyridinyl)oxy)phenyl)-4-(3-thienyl)-1-phthalazinamine], the EC50 in assay [1] (setting [4]) is less than 1000 nM.

Consider `CNc1nccc(-c2cccnc2Oc2ccc(Nc3nnc(-c4ccccc4)c4c3CCC4)cn2)n1` [Example 108, N-(6-((3-(2-(methylamino)-4-pyrimidinyl)-2-pyridinyl)oxy)-3-pyridinyl)-4-phenyl-6,7-dihydro-5H-cyclopenta[d]pyridazin-1-amine], for which, in assay [1] (setting [4]), the EC50 was less than 1000 nM.

As to `Cc1cc(-c2ccccc2)nnc1Nc1ccc(Oc2ncccc2-c2ccnc(N)c2)cc1` [compound 418, 2-((4-((4-methyl-6-phenyl-3-pyridazinyl)amino)phenyl)oxy)-3,4'-bipyridin-2'-amine], the EC50 in assay [1] (setting [2]) lay within 100 to 500 nM.

In the case of `Nc1nccc(-c2cccnc2Oc2ccc(Nc3nnc(-c4ccccc4)c4ccccc34)cn2)n1` [compound 415, N-(6-((3-(2-amino-4-pyrimidinyl)-2-pyridinyl)oxy)-3-pyridinyl)-4-phenyl-1-phthalazinamine], the EC50 in assay [1] (setting [2]) is no more than 100 nM.

Turning to `Cc1csc(-c2nnc(Nc3ccc(Oc4ncccc4-c4ccnc(N)c4)cc3)c3ccccc23)c1` [compound 416, 2-((4-((4-(4-methyl-2-thienyl)-1-phthalazinyl)amino)phenyl)oxy)-3,4'-bipyridin-2'-amine], the EC50 in assay [1] (setting [5]) stood at 134 nM.

As to `Cc1csc(-c2cc(C)c(Nc3ccc(Oc4ncccc4-c4ccnc(N)c4)cc3)nn2)n1` [compound 434, 2-((4-((4-methyl-6-(4-methyl-1,3-thiazol-2-yl)-3-pyridazinyl)amino)phenyl)oxy)-3,4'-bipyridin-2'-amine], the EC50 in assay [1] (setting [5]) came to 1000 nM.

With `Cc1csc(-c2nnc(Nc3ccc(Oc4ncccc4-c4ccnc(N)n4)cc3)c3ccccc23)c1` [compound 331, N-(4-((3-(2-amino-4-pyrimidinyl)-2-pyridinyl)oxy)phenyl)-4-(4-methyl-2-thienyl)-1-phthalazinamine], the EC50 in assay [1] (setting [2]) was no more than 100 nM. In addition, the IC50 at AuroraB (setting [3]) was no more than 100 nM.

As to `CNc1nccc(-c2cccnc2Oc2ccc(Nc3nnc(-c4ccccc4)c4c3C3CCC4CC3)cc2)n1` [Example 107, N-(4-((3-(2-(methylamino)-4-pyrimidinyl)-2-pyridinyl)oxy)phenyl)-6-phenyl-4,5-diazatricyclo [6.2.2.0-2,7-]dodeca-2,4,6-trien-3-amine], in assay [1] (1 hour incubation, % of cells pHH3 positive, read-out: inhibitory activity (EC50) in the phospho-histone H3 assay), the EC50 was less than 1000 nM.

On to `Cc1cc(-c2ccccc2)nnc1Nc1ccc(Oc2ncccc2-c2ccnc(NCCCC(=O)O)n2)cc1` [compound 430, 4-((4-(2-((4-((4-methyl-6-phenyl-3-pyridazinyl)amino)phenyl)oxy)-3-pyridinyl)-2-pyrimidinyl)amino)butanoic acid], for which the EC50 in assay [1] (setting [2]) lay in the range of 500 to 2500 nM.
